These results are taken from PubChem BioAssay AID2305 (GlaxoSmithKline (GSK), 2010).

Each structure is given as a SMILES string. Where “and” joins values, the source holds several entries; their conditions need not be identical. Equal values may be shown once.

The assay deals with P. falciparum 3D7 growth, pLDH absorbance. Description: P. falciparum 3D7 growth inhibition, dose response, strain 3D7 (AID 2305).

As for `O=C(NC1CCCCC1)C(c1cccs1)N(CCc1ccccc1)C(=O)c1ccco1` (stereo unspecified), the IC50 is 1.04 µM. In the case of `O=C(NCc1cccc(C(F)(F)F)c1)c1ccc(CNC(=O)c2ccc(O)c(-c3ccc(Cl)c(Cl)c3)c2)cc1`, the IC50 was found to be 0.84 µM. Under `CCN1[C@@H](c2ccc(Cl)cc2)[C@@H](CNCc2ccccc2O)C[C@@]1(C)CO` stands 0.31 µM; under `COc1ccc(CNC2CCN(C)CC2)cc1-c1ccc(S(=O)(=O)NCCc2ccccn2)s1`, 0.62 µM. For the molecule `O=C(COc1cccc([N+](=O)[O-])c1)Nc1ccc(-c2nc3ccccc3[nH]2)cc1`, the IC50 came to 0.75 µM.

Regarding `NC(N)=NC(=O)Nc1cc(Cl)c(Cl)c(Cl)c1`, the IC50 turned out to be 0.59 µM.

`CCCCCC(C)N=C(Nc1ccc(C#N)cc1O)Nc1ccccc1Br` (stereo unspecified) registered an IC50 of 0.75 µM. The figure for `O=C(Nc1ccccc1F)N(CCCn1ccnc1)Cc1csc(-c2ccc(CNCc3ccccc3)cc2)n1` is 0.84 µM. `C=CCOC(=O)N1CCC(CNCc2ccc(-c3cccc(-c4nc5ccc(F)cc5[nH]4)c3)cc2)C1` (stereo unspecified) gave an IC50 of 0.14 µM. The figure for `CN(C)Cc1cc(Nc2ccnc3cc(Cl)ccc23)ccc1O` is 0.01 µM; for `O=C(Nc1ccc(C2=NC3CCCCC3N2)cc1)Nc1ccc(C2=NC3CCCCC3N2)cc1` (stereo unspecified) it is 0.18 µM. The molecule `CCCCc1ccc2[nH]cc(C(=O)OCC)c(=O)c2c1` registered an IC50 of 0.63 µM. The figure for `CC(NC(C)c1cccc(Cl)c1)C(=O)Nc1cc(C(F)(F)F)ccc1N1CCOCC1` (stereo unspecified) is 1.09 µM. The figure for `COc1ccc2nc(C)cc(NN=Cc3ccccc3[N+](=O)[O-])c2c1` is 0.18 µM; for `COc1cc2ncnc(Nc3ccc(OCc4ccccc4Br)c(OC)c3)c2cc1OC` it is 0.43 µM; for `c1ccc2nc(NCCCCCCCCNc3ccc4ccccc4n3)ccc2c1` it is 0.27 µM. Under `C#CC(C)(CO)N1CCCC1` (stereo unspecified) stands 0.38 µM. With `COc1cc(NC(=O)/C=C/c2cc(F)cc(F)c2F)cc(OCCN2CCC(O)(c3ccccc3)CC2)c1`, the IC50 was 0.17 µM. Under `Cc1cc(CNC(=O)[C@H](CC2CCCCC2)Nc2ccc(C#N)c3ccccc23)c(C(F)(F)F)o1` stands 1.18 µM; under `CC(C)(C)C(C)(C)Cc1ccc(O)c(CN2CCN(c3ccccc3)CC2)c1`, 0.6 µM; under `CCc1cc(NC2CCN(C)CC2)nc(Nc2ccc(C)cc2)n1`, 0.69 µM. The figure for `CNCCNCc1ccc(-c2ccc(-c3nc4ccc(F)cc4[nH]3)s2)cc1` is 0.77 µM; for `O=C(Nc1ccc(Cl)cc1)N1CCN(C2CCCCC2)CC1` it is 0.99 µM. Under `CC(=O)Nc1cccc(C(=O)Nc2cccc(-c3cccc(-c4nc5ccccc5[nH]4)c3)c2)c1` stands 0.59 µM. Turning to `N#Cc1ccc(C=CC(=O)NC2CCC(CCN3CCc4ccc(-c5cnccn5)cc4CC3)CC2)cc1` (stereo unspecified), the IC50 is 0.61 µM. As for `CN(C)CCN(C)Cc1ccc(-c2cccc(NC(=O)c3ccc(Cl)cc3)c2)cc1`, the IC50 turned out to be 0.56 µM. Under `COc1cc2nc(N3CCN(C(=O)c4ccco4)CC3)nc(NCc3ccccc3)c2cc1OC` stands 0.17 µM; under `Cc1ccc(CN2CCCN(Cc3cccc(NC(=O)c4ccc(-c5ccccc5)cc4)c3)CC2)cc1C`, 1.25 µM.

In turn, `COc1ccc2nccc([C@@H](O)CN3CCC(NCc4ccc5cccc(O)c5n4)CC3)c2n1` showed an IC50 of 0.91 µM. The figure for `CCN(CC)CCCCNc1cc(-c2[nH]c(-c3c(Cl)cccc3Cl)nc2-c2ccc3cc(OC)ccc3c2)ccn1` is 0.96 µM; for `O=C(NCC1CCC(C(=O)NCCN2CCCCC2)CC1)c1ccc(O)c(-c2ccc(Cl)c(Cl)c2)c1` (stereo unspecified) it is 1.17 µM. Under `O=C(Nc1ccc(Cn2ncc(N3CCCNCC3)c(Cl)c2=O)cc1)Nc1cccc(SC(F)(F)F)c1` stands 0.68 µM. Under `COc1cc(C(F)(F)F)c2cc(CNCCCNc3nc4ccccc4[nH]3)[nH]c2c1` stands 0.31 µM; under `CCc1ccc(C2CCN(CCCCNC(=O)c3ccc(NC(=O)c4ccc(Cl)cc4)cc3)CC2)c(OCCO)c1`, 1.39 µM; under `CCNc1cc(C(=O)N[C@@H](Cc2ccccc2)[C@H](O)CNC(C)(C)CC(C)(C)C)c(F)c(N2CCCCS2(=O)=O)c1`, 1.01 µM. As for `CC1(C)CC(NCCCCCCCOc2ccc(OCc3ccccc3)cc2)CC(C)(C)N1`, the IC50 stood at 0.83 µM. Under `Cc1cccc2[nH]c(-c3cccc(-c4ccc(NC(=O)C(=O)c5cccn5C)cc4)c3)nc12` stands 0.38 µM; under `CCN1CCCC1CN(Cc1ccc(-c2ccc(C(F)(F)F)cc2)cc1)C(=O)Cn1c(CCc2cccc(F)c2F)nc(=O)c2ccccc21` (stereo unspecified), 1.59 µM. The figure for `CS(=O)(=O)c1ccc(-c2cnc(N)c(-c3cccc(O)c3)c2)cc1` is 0.69 µM. For the molecule `CNC(=O)NC1=NC(C)(C)N(OCCCOc2cc(Cl)c(Cl)cc2Cl)C(N)=N1`, the IC50 came to 0.93 µM.

As to `CSc1ccc(C[C@@H](C)NC[C@H](O)c2cccc(Cl)c2)cc1`, the IC50 was found to be 0.94 µM. Under `O=C(NCCc1ccc(Cl)c(Cl)c1)[C@@H]1CCCN1C(=O)c1ccc(O)c(-c2ccc(Cl)c(Cl)c2)c1` stands 0.55 µM; under `C=C[C@]1(C)C[C@@H](OC(=O)c2cncn(COC)c2=O)[C@]2(C)[C@H](C)CC[C@]3(CCC(=O)[C@H]32)[C@@H](C)[C@@H]1O`, 0.88 µM.

`CCOC(=O)c1ccc(NC(=O)NCCCC2CCCN(CCCCCNC(=O)/C=C/c3ccc(Cl)c(Cl)c3)C2)cc1` (stereo unspecified) gave an IC50 of 0.86 µM. The figure for `O=C(NCCCN1CCC(N2CCCCC2)CC1)c1ccc(N2CCOc3ccccc32)s1` is 0.73 µM; for `Cc1ccc2c(C3=CCN(CCCCC4(C)C(=O)Nc5ccccc54)CC3)c(C)[nH]c2c1` (stereo unspecified) it is 0.37 µM; for `COc1ccc(C=CC(=O)NC2CCC(CN3CCC(c4c[nH]c5ccccc45)CC3)CC2)cc1` (stereo unspecified) it is 0.78 µM and 0.81 µM. The molecule `C=CCN1C(=O)c2[nH]nc(-c3cc(C)c(C)cc3O)c2C1c1cccc(Br)c1` (stereo unspecified) came in with an IC50 of 1.16 µM. Take `Clc1ccc(-c2cc(-c3csc(NCCN4CCOCC4)n3)on2)c(Cl)c1`: the IC50 amounted to 0.66 µM. The figure for `CC1CCC(NCc2ccc3c(CNC4CCC(C)CC4)c(O)ccc3c2O)CC1` (stereo unspecified) is 0.12 µM; for `NS(=O)(=O)NCCCN1CCN(c2ccccc2)CC1` it is 0.98 µM; for `O=C(Nc1ccc([N+](=O)[O-])cc1Cl)c1cc(Br)cc(Cc2ccccc2)c1O` it is 1.29 µM. `O=c1[nH]ccc2nc(N[C@@H]3CCNC3)nc(Nc3cccc(S(=O)(=O)N4CCOCC4)c3)c12` registered an IC50 of 1.23 µM. Under `Cc1cccc(C)c1N1CCN(C2CCC(NC(=O)c3cc4ccccc4[nH]3)CC2)CC1` (stereo unspecified) stands 0.6 µM; under `COc1ccccc1CNc1ccnc(NCCc2cccc(C(F)(F)F)c2)n1`, 0.93 µM.

Molecule `CC1CCc2c(C(=O)Nc3c(F)cc(F)cc3Br)csc2C1` (stereo unspecified) came in with an IC50 of 0.75 µM. Under `CCOC(=O)c1ccc(N=C2SC(=Cc3cc(Br)ccc3O)C(=O)N2C)cc1` stands 1 µM. Under `O=C(Nc1cccc(CN2CCCN(Cc3ccc4c(c3)OCO4)CC2)c1)c1ccc(-c2ccccc2)cc1` stands 0.65 µM.

Regarding `CC(C)Nc1nc(NC2CCCCC2)nc(N2CCCCCCC2)n1`, the concentration for half-maximal inhibition (IC50) turned out to be 1.09 µM. Under `CN(C)CCNCc1ncsc1-c1ccc2c(Nc3ccc(F)cc3Cl)ccnc2c1` stands 1.47 µM; under `O=C(/C=C/c1ccc(Cl)c(Cl)c1)N1CCC(CCCN2CCC(c3c[nH]c4ccccc34)CC2)CC1`, 0.71 µM; under `Cc1cc(F)ccc1Nc1nc(N(C)c2ccccc2)c2cccc(OCCO)c2n1`, 0.8 µM. Under `COc1ccc(-c2cnc(N)c(-c3ccc(C(N)=O)cc3)c2)cc1OC` stands 0.9 µM; under `Cc1cccc2[nH]c(-c3cccc(-c4ccc(NC(=O)c5cnc[nH]5)cc4)c3)nc12`, 0.72 µM; under `O=C(NCCc1ccc(Cl)c(Cl)c1)C1CCCN(C(=O)c2ccc(O)c(-c3ccc(Cl)c(Cl)c3)c2)C1` (stereo unspecified), 0.78 µM. The figure for `CCCCC(CC)NC(=O)[C@H]1CNCCN1C(=O)CCCc1ccccc1` (stereo partly specified) is 0.89 µM. The molecule `O=C(Nc1cccc(-c2nn3ccccc3c2-c2ccnc(Nc3cccc(F)c3)n2)c1)c1c(F)ccc(F)c1F` yielded an IC50 of 0.86 µM. Consider `Oc1ccc(CCNc2nc(NCc3ccc4cc(Cl)ccc4c3)nc(N3CCNCC3)n2)cc1`, for which the IC50 stood at 1.02 µM. In turn, `FC(F)(F)c1ccc2nc(-c3ccc(-c4cccc(CNCc5cnn(-c6ccccc6)n5)c4)cc3)[nH]c2c1` yielded an IC50 of 0.65 µM. The figure for `Cc1nc2ccc3ccc(CNc4ccc(C(=O)N[C@@H](CCC(=O)O)C(=O)N[C@@H](Cc5cccs5)C(=O)O)c(F)c4)cc3c2c(=O)[nH]1` is 0.79 µM. The figure for `C[C@@H](CC1CCCCC1)NCc1ccccc1O` is 0.93 µM.

With `O=C(Cc1cnc[nH]1)Nc1ccc(-c2ccc(-c3nc4ccccc4[nH]3)s2)cc1`, the IC50 is 1.06 µM. Under `O=C(/C=C/c1ccc(Cl)c(Cl)c1)NCCCCCN1CCCC(CNC(=O)Nc2ccc(C(F)(F)F)cc2)C1` (stereo unspecified) stands 0.67 µM. For `Fc1ccc2nc(-c3cccc(-c4ccc(CNCCN5CCNCC5)cc4)c3)[nH]c2c1`, the IC50 was 0.9 µM.

Molecule `COc1ccc(OC)c(NC(=O)C2c3ccccc3C(=O)N(CC(C)C)C2c2cccs2)c1` (stereo unspecified) had an IC50 of 0.81 µM. Under `CCCC1N=C(N)N=C(N)N1c1ccc(OC)cc1` (stereo unspecified) stands 0.23 µM; under `c1ccc2c(c1)CN(CC1CCOCC1)CC1(CCN(Cc3c[nH]c4cnccc34)CC1)O2`, 1.55 µM.

In turn, `COc1ccc(-c2nc(NC(=O)CSc3ccc([N+](=O)[O-])cc3)sc2C)cc1` returned an IC50 of 0.14 µM. Under `Nc1ccnc2ccc(OCCCCCCc3ccccc3)cc12` stands 0.52 µM; under `O=C(NC1CCCc2ccccc21)[C@@H]1CCCN1C(=O)c1ccc(O)c(-c2cccc([N+](=O)[O-])c2)c1` (stereo partly specified), 0.68 µM; under `Fc1cccc(COc2ccc(Nc3ncnc4ccc(C#C[C@H]5CCCN5)cc34)cc2Cl)c1`, 0.88 µM. Under `Cc1cccc(Cl)c1Nc1nnc(-c2cccc(C(=O)NC[C@@H]3CC[C@H]4C[C@@H]3C4(C)C)c2)o1` stands 0.27 µM; under `CC(=O)Nc1ccc(S(=O)(=O)N2CCN(c3nc(NC4CCCC4)c4ccccc4n3)CC2)cc1`, 1.03 µM; under `O=C(C=Cc1ccc(Cl)c(Cl)c1)NCCCCCN1CCC(c2[nH]nc3ccccc23)CC1`, 0.64 µM. The figure for `Clc1ccc2c(NN=Cc3cccnc3)ccnc2c1` is 0.7 µM. Molecule `CC(C)C[C@H](NC(=O)c1cc2ccccc2s1)C(=O)N[C@H]1CCN(Cc2ccc(OC[C@@H]3CCCN3C)c(Cl)c2)C1` returned an IC50 of 0.85 µM.

One may read the IC50 as the point on the concentration scale where inhibition reaches its midpoint.
